For one data set, the target named is CDK1B (Homo sapiens, UniProt P06493). Kind of data set: Kinase assay CDK1B (radiometric profiling service). Conditions: for Ki: apparent Ki calculated from Km (ATP) and IC50, read-out: CDK inhibition Ki CDK1B. Format: biochemical. In a few lines:
(§1)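 CDK7, CDK2 and CDK1 inhibition was measured by an external radiometric profiling service; CDK4/D1 by radiometric or in-house ADP-Glo assay with RB-CTF substrate in […] pH 7.5, 20 mM MgCl2, 0.4 mM DTT, 0.1 mg/ml BSA, for 40 min at 37° C. IC50 came from four-parameter fits; Ki from IC50 and Km (ATP).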

The next data set has as its target CDK 2A (Homo sapiens, UniProt P24941). Kind of data set: Kinase assay CDK2A (radiometric profiling service). The data set is classed as biochemical. Conditions: for Ki: apparent Ki calculated from Km (ATP) and IC50, read-out: CDK inhibition Ki CDK 2A. In a few lines: as §1
The target in a further data set is CDK7H (Homo sapiens, UniProt P50613). Kind of data set: Kinase assay CDK7H (radiometric profiling service). The data set is classed as biochemical. Conditions: for Ki: apparent Ki calculated from Km (ATP) and IC50, read-out: CDK inhibition Ki CDK7H. An outline of the steps: as §1
Sequence of CDK7H (P50613 whole entry): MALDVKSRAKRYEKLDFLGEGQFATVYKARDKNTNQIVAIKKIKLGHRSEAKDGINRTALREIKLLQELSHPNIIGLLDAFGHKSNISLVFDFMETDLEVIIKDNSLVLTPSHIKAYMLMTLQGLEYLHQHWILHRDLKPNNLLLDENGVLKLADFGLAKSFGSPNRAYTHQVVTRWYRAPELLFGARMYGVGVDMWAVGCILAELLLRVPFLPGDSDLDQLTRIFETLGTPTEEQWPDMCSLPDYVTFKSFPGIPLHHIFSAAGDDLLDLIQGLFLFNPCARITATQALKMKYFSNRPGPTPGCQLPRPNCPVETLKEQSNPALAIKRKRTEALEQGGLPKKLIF
Sequence of CDK7H (P51946 whole entry partner): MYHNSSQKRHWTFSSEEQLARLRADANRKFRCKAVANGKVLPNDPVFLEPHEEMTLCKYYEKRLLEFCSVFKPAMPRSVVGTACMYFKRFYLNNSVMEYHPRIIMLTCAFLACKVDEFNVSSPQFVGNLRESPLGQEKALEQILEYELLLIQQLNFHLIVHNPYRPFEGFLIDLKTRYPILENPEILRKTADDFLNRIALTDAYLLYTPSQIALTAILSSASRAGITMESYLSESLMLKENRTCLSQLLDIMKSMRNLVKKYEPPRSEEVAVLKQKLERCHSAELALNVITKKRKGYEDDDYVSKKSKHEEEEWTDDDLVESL
Sequence of CDK7H (P51948 whole entry partner): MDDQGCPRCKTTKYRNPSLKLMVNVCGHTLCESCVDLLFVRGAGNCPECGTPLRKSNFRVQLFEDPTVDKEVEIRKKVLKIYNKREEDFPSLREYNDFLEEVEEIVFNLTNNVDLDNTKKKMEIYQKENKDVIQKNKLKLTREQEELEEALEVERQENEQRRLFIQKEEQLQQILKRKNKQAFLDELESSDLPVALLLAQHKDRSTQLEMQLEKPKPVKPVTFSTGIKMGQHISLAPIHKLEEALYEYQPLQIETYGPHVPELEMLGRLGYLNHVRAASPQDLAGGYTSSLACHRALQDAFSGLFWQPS
In the next data set the target is T1, CDK9T1 (Homo sapiens, UniProt P50750).
T1 construct: purchased Eurofins Pharma Discovery or Reaction Biology Corporation (service)
T1 sequence (P50750 whole entry): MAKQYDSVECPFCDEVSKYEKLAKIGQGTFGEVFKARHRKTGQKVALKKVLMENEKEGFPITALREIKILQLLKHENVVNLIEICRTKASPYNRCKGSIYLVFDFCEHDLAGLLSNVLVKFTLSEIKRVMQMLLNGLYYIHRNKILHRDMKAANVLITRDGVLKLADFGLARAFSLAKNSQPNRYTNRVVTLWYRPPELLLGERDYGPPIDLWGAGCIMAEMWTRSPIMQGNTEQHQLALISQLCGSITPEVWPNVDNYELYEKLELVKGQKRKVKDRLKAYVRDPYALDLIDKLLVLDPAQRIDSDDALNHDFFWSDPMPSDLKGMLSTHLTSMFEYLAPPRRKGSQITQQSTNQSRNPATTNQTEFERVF
T1 sequence (O60563 whole entry partner): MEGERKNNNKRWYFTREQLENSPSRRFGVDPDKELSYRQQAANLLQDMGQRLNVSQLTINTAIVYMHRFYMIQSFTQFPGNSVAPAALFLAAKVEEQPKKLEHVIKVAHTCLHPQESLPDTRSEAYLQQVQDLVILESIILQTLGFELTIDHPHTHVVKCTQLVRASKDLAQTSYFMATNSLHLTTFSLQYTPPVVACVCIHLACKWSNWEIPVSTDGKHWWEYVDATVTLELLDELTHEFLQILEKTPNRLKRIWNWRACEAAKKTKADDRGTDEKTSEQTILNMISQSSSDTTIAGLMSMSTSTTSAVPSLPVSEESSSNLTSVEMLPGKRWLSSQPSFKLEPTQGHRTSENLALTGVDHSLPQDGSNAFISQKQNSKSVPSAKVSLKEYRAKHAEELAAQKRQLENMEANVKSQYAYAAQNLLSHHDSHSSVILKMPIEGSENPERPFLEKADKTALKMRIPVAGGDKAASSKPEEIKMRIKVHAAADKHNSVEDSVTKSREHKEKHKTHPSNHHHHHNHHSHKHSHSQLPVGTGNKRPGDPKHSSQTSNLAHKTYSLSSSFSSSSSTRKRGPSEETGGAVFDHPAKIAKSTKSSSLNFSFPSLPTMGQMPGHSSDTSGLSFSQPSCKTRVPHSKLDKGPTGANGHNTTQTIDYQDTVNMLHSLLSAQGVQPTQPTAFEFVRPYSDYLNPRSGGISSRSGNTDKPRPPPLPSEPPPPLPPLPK
In words: Kinase assay CDK9/T1 (radiometric or ADP Glo). The data set is classed as biochemical. Conditions: apparent Ki calculated from Km (ATP) and IC50; read-out: CDK inhibition Ki CDK9T1. An outline of the steps:
(§2)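 Radiometric inhibition data for CDKs came from Eurofins or Reaction Biology profiling services; CDK4/D1 was also run in-house by ADP-Glo in […] pH 7.5, 20 mM MgCl2, 0.4 mM DTT, 0.1 mg/ml BSA with RB-CTF substrate, 40 min at 37 °C after ATP start. Ten-point 1:3 dilutions (10 μM–0.5 nM); four-parameter IC50, Ki from IC50 and ATP Km.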

For a further data set, the system named is MV4-11. Kind of data set: Cell viability assay (resazurin, leukemia cell line) MV4-11. The data set is classed as cell-based, human. Conditions: Homo sapiens, MV4-11, 72 h; read-out: Anti-proliferative activity GI50 MV4-11. An excerpt: (§3) Compounds from Example 1 were subjected to a standard MTT (3-(4,5-dimethylthiazol-2-yl)-2,5-diphenyltetrazolium bromide) and resazurin assays on solid tumour cell lines and leukemia cell lines, respectively, as previously reported (Wang S et al., J Med Chem 47:1662-1675, 2004 and Diab S. et al. CheMedChem 9:962-972, 2014).
In general terms: The colour change of resazurin is a common sign of viable cells or microbes.

Another data set relates to MDA-MB-453. In words: Cell viability assay (MTT, solid tumour cell line) MDA-MB-453. The data set is classed as cell-based, human. Conditions: Homo sapiens, MDA-MB-453, 72 h; read-out: Anti-proliferative activity GI50 MDA-MB-453.
Text: as §3

Another data set deals with KG-1. Kind of data set: Cell viability assay, leukemia KG-1. Format: cell-based. Conditions: Homo sapiens, 72 h, read-out: Antiproliferative activity GI50 KG-1.
Text: as §3

The test system of another data set is MOLM-13. Kind of data set: Cell viability assay, leukemia MOLM-13. Format: cell-based. Conditions: Homo sapiens, 72 h, read-out: Antiproliferative activity GI50 MOLM-13.
Text: as §3

Another data set can be described thus: Pharmacokinetics in rat. Conditions: po; for bioavailability: vs IV dosing, read-out: Oral bioavailability (F %). Format: in vivo, Wistar Rat. The method, then:
(§4) For pharmacokinetic measurements, healthy male adult Balb/C mice (weighing 20-25 g) or Wistar Rat (weighing 250-350 g) were split into weight matched groups of 3 per group. […] Blood samples were collected from animals by jugular vein cannula (rats) or under anaesthesia by cardiac puncture (mice) at time zero and at intervals up to 24 h. Harvested blood was centrifuged at 7000×G for 2 minutes, and the plasma aspirated and frozen at −20° C. until analysis. Quantitative analysis of compound in plasma was carried out using LC-MS/MS methods. Pharmacokinetic data derived using Phoenix WinNonlin 6.4® non-compartmental analysis. Oral bioavailability (% F) was calculated by taking the ratio of dose-normalised AUC values from oral versus parenteral (IV) dosing.

The target in a further data set is T2, CDK4D1 (Homo sapiens, UniProt P11802).
T2 construct: purchased Eurofins Pharma Discovery or Reaction Biology Corporation (service)
T2 sequence (P11802 whole entry): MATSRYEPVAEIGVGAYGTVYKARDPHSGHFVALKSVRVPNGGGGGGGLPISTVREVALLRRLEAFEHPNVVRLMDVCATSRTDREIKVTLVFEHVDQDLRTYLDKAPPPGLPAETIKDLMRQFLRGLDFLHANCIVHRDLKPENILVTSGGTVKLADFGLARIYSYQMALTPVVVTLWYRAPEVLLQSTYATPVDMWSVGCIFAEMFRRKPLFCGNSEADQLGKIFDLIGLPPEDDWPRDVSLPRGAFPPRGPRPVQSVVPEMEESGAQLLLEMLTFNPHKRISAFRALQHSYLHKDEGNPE
T2 sequence (P24385 whole entry partner): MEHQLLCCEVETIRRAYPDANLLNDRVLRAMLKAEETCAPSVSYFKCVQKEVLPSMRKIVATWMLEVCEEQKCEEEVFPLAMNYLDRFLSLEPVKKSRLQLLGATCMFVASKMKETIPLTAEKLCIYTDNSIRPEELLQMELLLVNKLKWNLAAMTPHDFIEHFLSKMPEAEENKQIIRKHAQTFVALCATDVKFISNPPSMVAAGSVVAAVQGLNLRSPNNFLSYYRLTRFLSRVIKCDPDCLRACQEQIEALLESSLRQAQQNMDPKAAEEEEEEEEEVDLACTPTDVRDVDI
Kind of data set: Kinase assay CDK4/D1 (radiometric or ADP Glo). Format: biochemical. Conditions: apparent Ki calculated from Km (ATP) and IC50; read-out: CDK inhibition Ki CDK4D1. In a few lines: as §1

The target of the next data set is T3, CDK6D3 (Homo sapiens, UniProt Q00534).
T3 construct: purchased Eurofins Pharma Discovery or Reaction Biology Corporation (service)
T3 sequence (Q00534 whole entry): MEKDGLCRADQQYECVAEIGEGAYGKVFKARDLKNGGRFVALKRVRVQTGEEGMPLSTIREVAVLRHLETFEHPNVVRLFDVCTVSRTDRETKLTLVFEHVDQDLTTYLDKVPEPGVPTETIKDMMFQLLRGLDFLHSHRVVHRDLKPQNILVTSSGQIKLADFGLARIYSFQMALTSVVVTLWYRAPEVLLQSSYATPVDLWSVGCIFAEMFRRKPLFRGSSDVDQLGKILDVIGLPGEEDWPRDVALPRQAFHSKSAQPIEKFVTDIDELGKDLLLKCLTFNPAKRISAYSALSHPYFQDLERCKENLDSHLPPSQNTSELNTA
T3 sequence (P30281 whole entry partner): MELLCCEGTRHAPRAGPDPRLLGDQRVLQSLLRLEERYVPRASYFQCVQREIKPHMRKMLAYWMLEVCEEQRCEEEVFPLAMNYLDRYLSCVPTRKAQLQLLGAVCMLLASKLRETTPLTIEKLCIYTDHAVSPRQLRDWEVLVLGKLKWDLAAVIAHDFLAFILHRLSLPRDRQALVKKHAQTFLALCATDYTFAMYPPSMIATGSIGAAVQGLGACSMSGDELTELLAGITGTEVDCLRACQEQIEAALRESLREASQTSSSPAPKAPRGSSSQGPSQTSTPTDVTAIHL
In words: Kinase assay CDK6/D3 (radiometric or ADP Glo). Conditions: apparent Ki calculated from Km (ATP) and IC50; read-out: CDK inhibition Ki CDK6D3. The data set is classed as biochemical. An outline of the steps: as §2

A short description of the next data set: Pharmacokinetics in mice. Conditions: po, 10 mg/kg in mice. Format: in vivo, Balb/C mice. The method, then:
as §4

A further data set relates to A2780. Kind of data set: Cell viability assay, ovarian A2780. Format: cell-based. Conditions: Homo sapiens, A2780; 72 h, Ovarian; read-out: Antiproliferative activity GI50 A2780.
Text: as §3

The subject of a further data set is D458. In words: Cell viability assay, medulloblastoma D458. Conditions: Homo sapiens; 72 h, Medulloblastoma; read-out: Antiproliferative activity GI50 D458. Format: cell-based.
Text: as §3

The next data set has as its system D283. Kind of data set: Cell viability assay, medulloblastoma D283. The data set is classed as cell-based. Conditions: Homo sapiens, D283; 72 h, Medulloblastoma; read-out: Antiproliferative activity GI50 D283.
Text: as §3

The next data set deals with MV4-11 cells. Kind of data set: Cell cycle analysis (PI staining, flow cytometry). The data set is classed as cell-based, human. Conditions: MV4-11 cells treated for 24 h, FIG. 1. As to the method:
Cell cycle analysis and apoptosis studies were performed as described previously (Diab S. et al. CheMedChem 9:962-972, 2014; Teo T., et al. Cancer Letters, 357(2):612-623, 2015). Briefly, human acute myeloid leukaemia MV4-11 cells (1×10^5) were seeded and incubated overnight at 37° C. and 5% CO2. Cells were centrifuged at 300×g for 5 min upon treatment with inhibitor. Cell pellets were collected and fixed with 70% ethanol on ice for 15 min, followed by centrifugation at 300×g for 5 min. The collected pellets were incubated with staining solution (50 μg/mL PI, 0.1 mg/mL ribonuclease A, 0.05% Triton X-100) at 37° C. for an hour and analysed with Gallios flow cytometer. 1×10^5 of the remaining cells were then used in an apoptotic assay with Annexin V-FITC Apoptosis Detection Kit. The samples were analysed by FACS within one hour of staining. Data were analysed using Kaluza v1.2.
In an example shown in FIG. 1, MV4-11 cells were treated with compound 60 for 24 hat the concentrations shown.
(In flow cytometry, cells or beads pass a laser one at a time.)

Setting [1] is: male, Wistar, plasma, 20 mg/kg in rat.
The mark [2] stands for this setting: male, Wistar, plasma, 40 mg/kg in rat.

Sequence of CDK1B (P06493 whole entry): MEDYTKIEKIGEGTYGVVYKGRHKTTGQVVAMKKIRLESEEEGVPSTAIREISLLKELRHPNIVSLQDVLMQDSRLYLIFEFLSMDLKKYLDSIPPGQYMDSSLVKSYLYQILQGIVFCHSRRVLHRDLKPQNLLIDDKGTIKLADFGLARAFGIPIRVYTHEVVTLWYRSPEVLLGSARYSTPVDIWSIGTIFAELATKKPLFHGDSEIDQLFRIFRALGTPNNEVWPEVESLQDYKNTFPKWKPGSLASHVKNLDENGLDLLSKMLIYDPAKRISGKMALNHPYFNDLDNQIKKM
Sequence of CDK1B (P14635 whole entry partner): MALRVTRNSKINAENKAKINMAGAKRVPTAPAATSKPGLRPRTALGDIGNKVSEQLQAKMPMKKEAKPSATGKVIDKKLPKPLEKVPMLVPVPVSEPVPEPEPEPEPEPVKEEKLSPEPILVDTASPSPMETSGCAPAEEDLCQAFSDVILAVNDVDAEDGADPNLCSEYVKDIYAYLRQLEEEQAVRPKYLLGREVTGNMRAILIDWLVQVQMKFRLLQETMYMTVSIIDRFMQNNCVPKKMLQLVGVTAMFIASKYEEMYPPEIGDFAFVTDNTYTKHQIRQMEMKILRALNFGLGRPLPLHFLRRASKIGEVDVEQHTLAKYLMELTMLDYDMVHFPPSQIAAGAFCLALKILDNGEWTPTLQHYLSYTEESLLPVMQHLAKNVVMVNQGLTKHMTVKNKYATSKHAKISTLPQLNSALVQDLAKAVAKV

The GI50 is the concentration giving 50% growth inhibition. As a reminder, the AUC is the area under the concentration-time curve, a measure of exposure. A low value points to less exposure. The Cmax is the maximum level reached in the sampled fluid or tissue. The term half-life denotes the time needed for the level to fall by half in the phase considered. Higher therefore signals slow decline. The term bioavailability denotes the share of a dose that reaches the circulation, judged against a reference dose that is usually intravenous. Turning to `CNc1nc(C)c(-c2nc(Nc3ccc(N4CCN(C(C)=O)CC4)cn3)ncc2C#N)s1` [Compound 34, 2-((5-(4-acetylpiperazin-1-yl)pyridin-2-yl)amino)-4-(4-methyl-2-(methylamino)thiazol-5-yl)pyrimidine-5-carbonitrile], the Ki at CDK1B is greater than 5 µM; on CDK 2A it was 4.47 µM; at CDK7H it was greater than 5 µM; on CDK9T1 it was greater than 5000 nM. In addition, the 50% growth inhibitory concentration (GI50) stood at 174 ± 22 nM with MV4-11, 813 ± 22 nM in the data set with MDA-MB-453, 112 ± 45 nM with KG-1 and 408 ± 25 nM with MOLM-13. Also, the AUC in the data set “Pharmacokinetics in rat” (setting [1]) stood at 10.2 µM·h. The molecule further returned a Cmax in “Pharmacokinetics in rat” (setting [1]) of 600 nM. The molecule further had a half-life in the data set “Pharmacokinetics in rat” (setting [1]) of 276 min. In the data set “Pharmacokinetics in rat” (setting [1]), the bioavailability stood at 39%.
Consider `Cc1nc(NC2CCCC2)sc1-c1ccnc(Nc2ccc(N3CCOCC3)cn2)n1` [Compound 71, N-cyclopentyl-4-methyl-5-(2-((5-morpholinopyridin-2-yl)amino)pyrimidin-4-yl)thiazol-2-amine], for which the Ki is greater than 5 µM at CDK1B; 2.94 µM at CDK 2A; 5 nM at CDK4D1; 29 nM at CDK6D3; greater than 5 µM at CDK7H; greater than 5000 nM at CDK9T1. Besides, the values for the GI50 in the data set with MV4-11 and in the data set on MDA-MB-453 were 335 ± 184 nM and 3680 ± 285 nM, respectively. Also, the AUC came out at 15.9 µM·h in “Pharmacokinetics in rat” (setting [1]) and 5.9 µM·h in the data set “Pharmacokinetics in mice” (male, Balb/C, mouse, plasma). Besides, the bioavailability in “Pharmacokinetics in rat” (setting [1]) stood at 27%; in “Pharmacokinetics in mice” (male, Balb/C, mouse, plasma, vs IV dosing, read-out: Oral bioavailability (F %)), 100%. In addition, the Cmax in “Pharmacokinetics in rat” (20 mg/kg in rat) is 1400 nM; in “Pharmacokinetics in mice”, 1600 nM. In “Pharmacokinetics in rat” (20 mg/kg in rat), this molecule yielded a t1/2 of 2.8 h. This molecule also gave a half-life in “Pharmacokinetics in mice” (male, Balb/C, mouse, plasma) of 300 min.
Consider `Cc1nc(NC2CCCC2)sc1-c1ccnc(Nc2ccc(N3CCNCC3)cn2)n1` [Compound 60, N-cyclopentyl-4-methyl-5-(2-((5-(piperazin-1-yl)pyridin-2-yl)amino)pyrimidin-4-yl)thiazol-2-amine], for which the Ki at CDK1B and on CDK 2A was greater than 5 µM each time. In addition, the 50% growth inhibitory concentration (GI50) with MV4-11 amounted to 23 ± 24 nM; with MDA-MB-453 it was 70 ± 13 nM; in the data set on A2780, 81 ± 1 nM; in the data set with D458 it was 321 ± 68 nM; with D283 it was 124 ± 20 nM. The Cell cycle effect entry with MV4-11 cells was “arrested cells in the G1 phase of the cell-cycle in a dose-dependent manner”. This molecule registered an AUC in “Pharmacokinetics in rat” (setting [2]) of 6.6 µM·h. In addition, the concentration in “Pharmacokinetics in rat” (setting [2]) peaked (Cmax) at 500 nM. The half-life in the data set “Pharmacokinetics in rat” (setting [2]) is 984 min. Further, in the data set “Pharmacokinetics in rat” (setting [2]), the bioavailability came out at 51%.
As a reminder, the remaining activity is the share of the control activity or signal that is left under treatment. By melting point is commonly meant the temperature, or range, at which the solid turns liquid. Regarding `Cc1[nH]c(=O)sc1-c1ccnc(Nc2ccc(N3CCN(C)CC3)cn2)n1` [Compound 92, 4-methyl-5-(2-((5-(4-methylpiperazin-1-yl)pyridin-2-yl)amino)pyrimidin-4-yl)thiazol-2(3H)-one], the melting point lay within 228 to 230 °C. Also, the remaining activity at 10 µM on CDK1B (compound at 10 μM, read-out: % remaining enzymatic activity at 10 μM CDK1B) was found to be 51%. Also, the remaining activity at 10 µM at CDK 2A (compound at 10 μM, read-out: % remaining enzymatic activity at 10 μM CDK 2A) came out at 61%. At CDK4D1, the Ki is 27 nM. Moreover, on CDK6D3, the Ki was 155 nM. The remaining activity at 10 µM at CDK7H (compound at 10 μM, read-out: % remaining enzymatic activity at 10 μM CDK7H) came to 24%. Further, on CDK9T1, the Ki is 950 nM. Also, the GI50 with MV4-11 was found to be 752 ± 33 nM. Further, the GI50 in the data set on MDA-MB-453 was found to be 3330 ± 864 nM.

These data come from USRE49850E1, “N-(pyridin-2-yl)-4-(thiazol-5-yl)pyrimidin-2-amine derivatives as therapeutic compounds” (AUCENTRA THERAPEUTICS PTY LTD, priority 2015, dated 2024).
